Results from PubChem BioAssay (NCI).
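In this assay, cells in 96-well plates receive the compound at five concentrations for 48 hours. Endpoints are linearly interpolated between the surrounding concentrations. At the TGI there is no net growth.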

How the values were obtained:
Test in all cases: inhibition of tumour cell growth, NCI panel, 48 h
[1] = system: 786-0 renal
[2] = system: MALME-3M melanoma
[3] = system: NCI-H522 lung
[4] = system: LOX IMVI melanoma
[5] = system: MDA-N
[6] = system: OVCAR-5 ovarian
[7] = system: SW-620 colon
[8] = system: MCF7 breast
[9] = system: PC-3 prostate
[10] = system: HS 578T breast
[11] = system: KM12 colon

Compound	TGI [1] [µM]	TGI [2] [µM]	TGI [3] [µM]	TGI [4] [µM]	TGI [5] [µM]	TGI [6] [µM]	TGI [7] [µM]	TGI [8] [µM]	TGI [9] [µM]	TGI [10] [µM]	TGI [11] [µM]
COc1cc(/C=C\C(=O)O)ccc1OCc1ccccc1	> 100	> 100	> 100	> 100	> 100	> 100	> 100	> 100	> 100	> 100	> 100
CC(=O)OC/C=C(/C=C/CNC1CCCCC1)OC(C)=O	23.9	32.9	42.1	37.5	31.9	29.9	29.8	66.9	31.1	80.7	32.9
COCc1nc2c(OC)cc(-c3nc4ccc(N5CCN(C)CC5)cc4[nH]3)c(OC)c2[nH]1	> 100	31.6	> 100	34.8	> 100	> 100	> 100	> 100	> 100	> 100	> 100
COc1ccc2cc(NC(=O)N/N=C\c3ccc(Cl)cc3)ccc2c1	> 100	> 100	> 100	> 100	> 100	> 100	> 100	> 100	> 100	68.8	> 100
Brc1cc2nn(-c3ccccc3)nc2c2nonc12	> 100	> 100	> 100	> 100	> 100	> 100	> 100	> 100	> 100	> 100	> 100
FC(F)(F)c1ccc2nc3n(c2c1)C(c1c(Cl)cccc1Cl)SC3 (stereo not drawn)	28.4	29.9	29.7	> 100	24.3	30.4	34.9	37.9	31.5	68.9	28.3
O=C(Cc1ccc([N+](=O)[O-])cc1)OCC#CCOC(=O)Cc1ccc([N+](=O)[O-])cc1	> 10	> 10	> 10	> 10	> 10	> 10	> 10	> 10	> 10	> 10	> 10
Cc1nc(C)c(Cc2ccccc2)o1	> 100	> 100	> 100	> 100	> 100	> 100	> 100	> 100	> 100	> 100	> 100
